Results as given in a flash point compilation (Sun et al. 2020).
Where a name gives a salt, the structure may show the parent alone.

Row | SMILES | flash point
1 | CCNC(C)=O [N-ethylacetamide] | 110 °C
2 | CC(C)Br [2-bromopropane] | 1 °C
3 | C=C(C)CCCCC [2-methyl-1-heptene] | 10 °C
4 | OCCc1ccccc1 [2-phenylethanol] | 102 °C
5 | C=CC(=C)C [2-methyl-1,3-butadiene] | -48 °C
6 | COC(=O)C(C)C [methyl isobutyrate] | 3 °C
7 | CCC=C(C)C [2-methyl-2-pentene] | -23 °C
8 | C1=CCC=C1 [1,3-cyclopentadiene] | 25 °C
9 | CC(O)CN (configuration not stated) [1-amino-2-propanol] | 77 °C
10 | CCCCCCCCCO [1-nonanol] | 98 °C
11 | CCC(C)CS (configuration not stated) [2-methyl-1-butanethiol] | 19 °C
12 | CCCCC=C(C)C [2-methyl-2-heptene] | 8 °C
13 | CCCCC=CCCCC [5-decene] | 46 °C
14 | CCC(CC)C(=O)O [2-ethylbutyric acid] | 87 °C
15 | CCOC(=O)CCl [ethyl chloroacetate] | 53 °C
16 | C=C(C)C=O [isobutenal] | -0 °C
17 | CNC [dimethylamine] | -18 °C
18 | CNc1ccccc1 [N-methylaniline] | 80 °C
19 | CCCCOC(=O)c1ccccc1C(=O)OCCCC [dibutyl phthalate] | 117 °C
20 | C=C(C)C=O [2-methyl-2-propenal] | -15 °C
21 | OCCCCCCO [1,6-hexanediol] | 101 °C
22 | CCCCCCCBr [1-bromoheptane] | 60 °C
23 | CC(C)(C)CO [2,2-dimethyl-1-propanol] | 36 °C

Row | SMILES | flash point
24 | C=CC(=O)OCCCC [butyl acrylate] | 39 °C
25 | C=C=C [1,2-propadiene] | -101 °C
26 | C=C(C)C(C)C [2,3-dimethyl-1-butene] | -18 °C
27 | C=C(C)CCl [3-chloro-2-methyl-1-propene] | -12 °C
28 | Cc1cccc(C)c1O [2,6-dimethylphenol] | 73 °C
29 | CCCCCCCS [1-heptanethiol] | 41 °C
30 | CCCCI [1-iodobutane] | 33 °C
31 | CC(C)(C)OOC(C)(C)C [di-tert-butyl peroxide] | 12 °C
32 | Cc1ccc(O)c(C)c1 [2,4-dimethylphenol] | 94 °C
33 | C=CCCO [3-buten-1-ol] | 33 °C
34 | C1=COCC1 [2,3-dihydrofuran] | -24 °C
35 | Cc1cccc(Cl)c1 [3-chlorotoluene] | 50 °C
36 | CCCCCC(C)CCC (configuration not stated) [4-methylnonane] | 38 °C
37 | CC=CCCCCC [2-octene] | 14 °C
38 | OCC(Cl)CCl (configuration not stated) [2,3-dichloro-1-propanol] | 93 °C
39 | CCCC(C)S (configuration not stated) [2-pentanethiol] | 9 °C
40 | CC(=O)CC(C)C [4-methyl-2-pentanone] | 14 °C
41 | CCCCCI [1-iodopentane] | 43 °C
42 | C=Cc1cccc(C)c1 [3-methylstyrene] | 51 °C
43 | CCC(C)C(C)C (configuration not stated) [2,3-dimethylpentane] | -6 °C
44 | CCCCC(CC)CN (configuration not stated) [2-ethyl-1-hexanamine] | 50 °C
45 | CCOC(=O)CC(C)=O [3-oxobutanoic acid ethyl ester] | 70 °C
46 | Cc1ccc(C)c(O)c1 [2,5-dimethylphenol] | 95 °C

Row | SMILES | flash point
47 | CCCC(=O)c1ccccc1 [1-phenyl-1-butanone] | 88 °C
48 | CN(C)CCCN [N,N-dimethyl-1,3-propanediamine] | 35 °C
49 | CCCCC(CC)CO (configuration not stated) [2-ethyl-1-hexanol] | 77 °C
50 | N#Cc1ccccc1 [benzonitrile] | 75 °C
51 | OCCCCl [3-chloro-1-propanol] | 73 °C
52 | CC1CCC(O)CC1 (configuration not stated) [4-methylcyclohexanol] | 70 °C
53 | CCCCCCCCBr [1-bromooctane] | 78 °C
54 | C=C(C)CCC [2-methyl-1-pentene] | -26 °C
55 | C=Cc1ccc(C)cc1 [4-methylstyrene] | 45 °C
56 | Cc1ccc(C)c(C)c1 [1,2,4-trimethylbenzene] | 44 °C
57 | O=C1CCCCC1=O [1,2-cyclohexanedione] | 84 °C
58 | CCCCCCCCCCN [1-decanamine] | 86 °C
59 | Brc1ccc(-c2ccccc2)cc1 [4-bromobiphenyl] | 144 °C
60 | CN(C)CC1CCCCC1 [N,N-dimethylcyclohexanemethylamine] | 48 °C
61 | N#CC1CC1 [cyclopropanecarbonitrile] | 32 °C
62 | CCOC(=O)c1ccccc1C(=O)OCC [diethyl phthalate] | 160 °C
63 | CCCCCC(O)CC (configuration not stated) [3-octanol] | 65 °C
64 | SCCCCl [3-chloro-1-propanethiol] | 43 °C
65 | CC(C)CO [2-methyl-1-propanol] | 27 °C
66 | C=C(C)C(=C)C [2,3-dimethyl-1,3-butadiene] | -22 °C
67 | CC(Cl)CO (configuration not stated) [2-chloro-1-propanol] | 52 °C
68 | CCC1(C)CCCC1 [1-ethyl-1-methylcyclopentane] | 6 °C
69 | CC1=CC2C(CC1)C2(C)C (configuration not stated) [2-carene] | 38 °C

Row | SMILES | flash point
70 | Cc1ccncc1 [4-picoline] | 40 °C
71 | OCCS [2-mercaptoethanol] | 73 °C
72 | CCC(O)C(C)C (configuration not stated) [2-methyl-3-pentanol] | 46 °C
73 | Cc1ccccc1Cl [2-chlorotoluene] | 43 °C
74 | CCN1CCCCC1 [1-ethylpiperidine] | 18 °C
75 | C=CC(C)=CC [3-methyl-1,3-pentadiene] | -28 °C
76 | CC(=O)C(C)=O [2,3-butanedione] | 6 °C
77 | CCC(C)C(C)O (configuration not stated) [3-methyl-2-pentanol] | 40 °C
78 | C=CCCBr [4-bromo-1-butene] | 9 °C
79 | Cc1cccc(C(C)(C)C)c1O [2-t-butyl-6-methylphenol] | 107 °C
80 | Sc1ccccc1 [benzenethiol] | 50 °C
81 | CCC(C)=O [2-butanone] | -9 °C
82 | CCCCCC(=O)CCCCC [6-undecanone] | 88 °C
83 | Cc1ccccn1 [2-picoline] | 28 °C
84 | Cc1ccc(N)cc1 [4-methylaniline] | 86 °C
85 | CC(C)NC(C)C [diisopropylamine] | -6 °C
86 | BrC(Br)Br [bromoform] | 83 °C
87 | C=CC(C)O (configuration not stated) [3-buten-2-ol] | 20 °C
88 | CC=CCCC [2-hexene] | -21 °C
89 | CCCC(=O)CC [3-hexanone] | 35 °C
90 | Cc1ccc(O)cc1 [p-cresol] | 86 °C
91 | CCCS [1-propanethiol] | -21 °C
92 | CCOS(=O)OCC [diethyl sulfite] | 53 °C

Continued, values first:

Row | flash point | SMILES
93 | 45 °C | CCC(C)c1ccccc1 (configuration not stated) [sec-butylbenzene]
94 | -17 °C | CCN(CC)CC [triethylamine]
95 | 150 °C | O=C1OCCO1 [ethylene carbonate]
96 | 22 °C | C=CC1CCCCC1 [ethenylcyclohexane]
97 | 106 °C | Cc1ccc(C(C)C)cc1O [carvacrol]
98 | 16 °C | CC(=O)OC(C)(C)C [acetic acid, 1,1-dimethylethyl ester]
99 | 88 °C | CCOC(=O)c1ccccc1 [ethyl benzoate]
100 | -76 °C | C=C(C)C [isobutene]
101 | 33 °C | CC(=O)SC(C)(C)C [S-t-butyl thioacetate]
102 | 67 °C | CC(C)(C)SSC(C)(C)C [di-tert-butyl disulfide]
103 | 25 °C | CCCCCOC(C)=O [n-pentyl acetate]
104 | 17 °C | COC(=O)C1CC1 [methyl cyclopropanecarboxylate]
105 | 5 °C | FC1CCCCC1 [fluorocyclohexane]
106 | 6 °C | CCC(=O)OC [methyl propionate]
107 | 65 °C | N#CC1CCCCC1 [cyclohexanecarbonitrile]
108 | 96 °C | CCOC(=O)CCCC(=O)OCC [diethyl glutarate]
109 | 1 °C | CCCCNC [N-methylbutylamine]
110 | 112 °C | CCCCCCC(=O)O [heptanoic acid]
111 | -28 °C | COC(C)(C)C [tert-butyl methyl ether]
112 | 24 °C | C1CCC2OC2C1 (configuration not stated) [cyclohexene oxide]

Row | flash point | SMILES
113 | -9 °C | CC(C)(C)OC=O [t-butyl formate]
114 | 33 °C | c1cc[nH]c1 [pyrrole]
115 | 15 °C | CCC1CCCC1 [ethyl cyclopentane]
116 | 71 °C | CCCCCCCCC=O [n-nonanal]
117 | 7 °C | CCCNCCC [dipropylamine]
118 | 90 °C | CC=Cc1ccc(OC)cc1 [anethole]
119 | 12 °C | C1CCSC1 [thiacyclopentane]
120 | 129 °C | c1ccc(CCc2ccccc2)cc1 [bibenzyl]
121 | -3 °C | CSC(C)(C)C [t-butyl methyl sulfide]
122 | -9 °C | CC(C)(C)N [tert-butylamine]
123 | 167 °C | CCCCOC(=O)CCCCCCCCC(=O)OCCCC [dibutyl sebacate]
124 | 113 °C | CCCCSSCCCC [dibutyl disulfide]
125 | 10 °C | O=C1CCC1 [cyclobutanone]
126 | 51 °C | CCC(=O)O [propionic acid]
127 | 88 °C | CCCCCC#CC(=O)OC [methyl 2-octynoate]
128 | 165 °C | Oc1ccc(O)cc1 [hydroquinone]
129 | 39 °C | CCC(C)SC(C)CC (configuration not stated) [s-butyl sulfide]
130 | 52 °C | CCCCCCC(=O)OC [methyl heptanoate]
131 | 75 °C | CC(C)=CCCC(C)CC=O (configuration not stated) [citronellal]
132 | 32 °C | CCCCOC(=O)CC [butyl propionate]
